Measurements published in a melting point compilation (Tetko et al.; mined from patent text by program, amines drawn as free bases though some values may be those of a salt).
Non-standard residues stand in square brackets, D forms with d. Residues, ends and D or L forms follow the SMILES beside them. ξ: configuration not given here. *: point of attachment. ξQ = NC(=O)CCC(N)C(=O)O; Cbz = O=C(OCc1ccccc1)*

SMILES	melting point [°C]
Cn1c(C(F)(F)F)cc(=O)n(-c2c(F)cc(Cl)c3c2OCCC3)c1=O	141 to 145
COc1ccc(S(N)(=O)=O)cc1C(O)CN=[N+]=[N-] (centres undefined)	122
CCOC(=O)C1=C(C)Nc2nc(N3CCCCC3)nc(N3CCCCC3)c2C1c1cccc([N+](=O)[O-])c1 (centres undefined)	169
CCOC(=O)C1=C(N)NC(N)=C(C(=O)OC(C)C)C1c1ccccc1[N+](=O)[O-] (centres undefined)	110
O=c1c2cc(F)c(N3CCCC3)cc2n(-c2ccccc2F)c(=O)n1O	235 to 237
CCCCCOc1ccc(C2SC(=O)NC2=O)cc1OCC (centres undefined)	104 to 106
CCCOc1ccccc1-c1ncc(C(=O)OCC)c(=O)[nH]1	106 to 107
N#Cc1nc2ncccc2[nH]1	200
O=C(O)c1ncn2c1CN=C(c1ccccc1)c1cc(Br)ccc1-2	> 250
CC(=O)Nc1ccccc1C(=O)C=CN(C)C	90 to 95
Nc1cc(F)c(Cl)c(F)c1N	77 to 78
C=CC1CC2=CCCCC2C2CCC3(C)C(O)CCC3C12 (centres undefined)	117 to 121
COC(=O)/C=C/c1ccc(Br)s1	60 to 62
N#Cc1cn(CCl)cc1-c1cccc(Cl)c1Cl	132 to 133
CCCOC(=O)N(C)S(=O)(=O)c1cc([N+](=O)[O-])c(N(CCC)CCC)c([N+](=O)[O-])c1	110 to 113
Cc1noc(NS(=O)(=O)c2cc(Br)c(Br)s2)c1Br	153 to 155
N[C@@H](Cc1ccccc1)C(=O)N1CCN(C(c2ccc(F)cc2)c2ccc(F)cc2)CC1	44 to 51
C/C(=C\C=C\c1ccccc1)C(=O)NCCCCCC(=O)NO	158 to 160
CC(C)(C)c1ccc(C(N)=O)cc1[N+](=O)[O-]	114 to 115
CC12C=CCC1C1CCC3=CC(=O)CCC3C1CC2 (centres undefined)	67 to 71
COc1cc(OC)c2sc(-c3c(F)cccc3F)nc2c1	136 to 138
CC(=O)C(=Cc1ccc(C#N)cc1)C(C)=O	86 to 88
C=CCn1cc(Cn2ccnc2)c2cc(O)ccc21	165 to 167
COc1ccc(CC([N+](=O)[O-])C2(CCCCc3ccc(C)cc3)OCCO2)cc1OC (centres undefined)	89 to 91
COCc1nc(N2CCCCC2)ncc1C(=O)OC	89 to 92

SMILES	melting point [°C]
Nc1ccc(Oc2ccc3cc(Oc4ccc(N)c(O)c4)ccc3c2)cc1O	239 to 241
CC(C)n1nc(-c2c(-c3ccccc3)nn3ccc(OCCC4CCCCC4)cc23)ccc1=O	146 to 147
Fc1ccc(CBr)c(I)c1	71 to 73
CCN1CCN(c2cccc3c2CC(NC(=O)c2ccc(N4CCOCC4)cc2)CC3)CC1 (centres undefined)	204 to 206
Cc1ccc(C(=O)NCCc2ccccc2Cl)cc1	106 to 108
COc1cccc(-c2ccc3c(C(=O)Nc4onc(C)c4C)c(OC)ccc3c2)c1	124
Cn1c2c(c3ccc(F)cc31)C(=O)CCC2	174 to 175
Cn1nc(-c2ccccc2O)c2sccc21	112 to 113
CCCN(CCC)CCc1ccc(OC)c2[nH]nc(O)c12	198 to 201
COc1ccc(-n2c(N)cc(=O)nc2SC)cc1	182 to 186
CN(C(=O)c1ccc2nonc2c1)C1CCCCC1O (centres undefined)	148 to 149
CCOc1cccc(CC(=O)O)c1OCCn1cc(C(=O)NCc2ccc(Cl)cc2Cl)c(OCC)n1	145 to 146
CCCCn1c(=O)n(Cc2ccccc2)c(=O)c2[nH]c(Cc3ccc(N4C(=O)CCC4=O)cc3)nc21	208 to 212
O=C1Nc2ccc(NCCCc3ccccc3)cc2C12OCCO2	106 to 108
CC(=NOCCOc1ccc(CC2SC(=O)NC2=O)cc1)c1ccc(-c2ccc(C)cc2)cc1 (centres undefined)	184 to 186
CCOC(=O)c1c(O)c2ccccc2[nH]c1=O	173
COC(=O)COC(=O)C(c1ccccc1)N1CCN(c2ccc(NC(=O)c3ccccc3-c3ccc(C(F)(F)F)cc3)cc2)CC1 (centres undefined)	106
COc1cc(CCNc2ncnc3scnc23)ccc1O	151 to 154
C=CCSC(c1ccccc1)(c1ccccc1)c1ccccc1	99 to 101
COC(=O)CNC(=O)CNC(=O)C(CCC(N)=O)NC(=O)OCc1ccccc1 (stereo not drawn) (Cbz-[ξQ]-Gly-Gly-OMe)	129 to 134
CC(C)(C)N(O)Cc1ccc(CN(O)C(C)(C)C)cc1	137 to 138
O=C(N=CNO)c1nccc2c1[nH]c1ccccc12	235 to 240
Cc1c(C)c2c(c(C)c1O)CC[C@](C)(C(=O)N[C@H]1CCOC1O)O2 (some centres undefined)	67 to 70
COC(=O)c1cccc(-c2nc(-c3cccc(C(F)(F)F)c3)cs2)c1	105 to 106
Oc1cccc([C@H]2CC[C@@H](c3ccccc3)N2)c1 (racemic)	151

SMILES	melting point [°C]
CSc1ccc(C2=C(c3ccc(C)cc3)CCC2)cc1	64.5 to 66.5
Cc1c(Sc2ccccc2S(C)(=O)=O)c2cc(NS(C)(=O)=O)ccc2n1CC(=O)O	227 to 230
CCOC(=O)c1sc(-n2cnn(CC3CC3(F)F)c2=O)nc1C (centres undefined)	146 to 148
COC(=O)C1=C(C)NC(C)=C(C(=O)OCCN2CCN(C(c3ccc(Cl)cc3)c3ccc(Cl)cc3)CC2)C1c1cccc(Cl)c1Cl (centres undefined)	104 to 107
COc1cc(OC)c(-c2cc3ccccc3n2C(=O)OC(C)(C)C)cc1/C=C/C(=O)c1ccc(S(N)(=O)=O)cc1	120 to 122
C=CC(=O)OCCOc1ccc(C(=O)C(C)(C)OC(=O)C=C)cc1	71
CS(=O)(=O)NCCCOS(C)(=O)=O	53.5 to 55.5
O=C1Nc2c(ccc3c2CCCC3)SC1CCCBr (centres undefined)	122 to 123
CC(C)(C)OC(=O)N1CCC[C@H]1COc1cccc2c1ccn2S(=O)(=O)c1ccccc1	48 to 50
COC(=O)N(CC(=O)O)C(=O)c1c(Cl)ccc2c(C(F)(F)F)c(OC)ccc12	162 to 165
CCCSC1=Nc2cc(C(=O)O)ccc2SN1Cc1ccc(-c2ccccc2C#N)cc1	53 to 68
FN(F)C12CC3CC(CC(C3)C1)C2	113 to 115
Cc1ccc(S(=O)(=O)CCCC(=O)c2ccc(F)cc2)cc1	114 to 116
CN(C)c1ccc2c(n1)C(c1ccccc1Cl)=NCc1n[nH]c(=O)n1-2	244 to 246
CNCc1cn(S(=O)(=O)c2ccccc2)c(-c2cccnc2F)c1F	128
O=C(Nc1nc(Cl)cc(Cl)n1)NS(=O)(=O)c1cccc2cccnc12	198 to 200
COC(=O)Oc1ccc(C(=O)CBr)c(OC(=O)OC)c1	73 to 74
Nc1cccc(C(=O)NCc2ccccc2)c1	95 to 100
COC(=O)c1ccc(OCC2CN(c3ccc([N+](=O)[O-])cc3)C(=O)O2)cc1 (centres undefined)	200 to 201
O=C(NC(=S)N1CCN(c2nc3cccccc-3n2)CC1)c1ccccc1	182 to 185
CCCC(=O)NN=C(c1ccc(Cl)cc1)c1ccc(OC(F)F)cc1	114 to 125
Nc1c(Cl)cc(-c2nc(C3CCNCC3)no2)c2c1CCO2	219
CC(C(=O)O)c1ccc(C=C2CCCCC2=O)cc1 (centres undefined)	108 to 110
CC=CCn1c(C)c(C)c2cnnc(SCc3c(F)cccc3Cl)c21	95 to 117
